From the NIST ThermoML archive (doi:10.1016/j.jct.2016.07.003)
± gives the expanded uncertainty stated by the source.

Columns and labels:
[1] = osmotic coefficient (dimensionless); mn = molality of the nth substance listed, in mol/kg; conditions: 298.15 K, 87 kPa, Liquid, isopiestic method
[2] = wn = mass fraction of the nth substance listed; conditions: 87 kPa, Liquid, Vibrating tube method
[3] = mn = molality of the nth substance listed, in mol/kg; conditions: 87 kPa, Liquid, Vibrating tube method

[Cl-].[Li+] [lithium chloride] + O
[1]
Conditions | osmotic coefficient
m1 = 0.9064 | 1.02 ± 0.01
m1 = 1.278 | 1.08 ± 0.01
m1 = 1.439 | 1.09 ± 0.01
m1 = 1.616 | 1.09 ± 0.01
m1 = 1.667 | 1.11 ± 0.01
m1 = 1.83 | 1.12 ± 0.01
m1 = 1.99 | 1.16 ± 0.01
m1 = 2.183 | 1.18 ± 0.01
m1 = 2.563 | 1.21 ± 0.01
m1 = 3.014 | 1.27 ± 0.01
m1 = 3.293 | 1.32 ± 0.02
m1 = 3.572 | 1.37 ± 0.02
m1 = 3.952 | 1.42 ± 0.02
m1 = 4.457 | 1.51 ± 0.02
m1 = 4.668 | 1.55 ± 0.02

mass density [kg/m3], [2]
Conditions | 293.15 K | 298.15 K | 303.15 K | 308.15 K | 313.15 K
w1 = 0.0346 | – | 1016.17 ± 3.7 | 1014.72 ± 3.7 | 1013.08 ± 3.7 | 1011.25 ± 3.7
w1 = 0.0691 | 1036.35 ± 3.7 | 1035.04 ± 3.7 | 1033.55 ± 3.7 | 1031.8 ± 3.7 | 1030.06 ± 3.7
w1 = 0.1035 | 1055.18 ± 3.7 | 1053.81 ± 3.7 | 1052.33 ± 3.7 | 1050.73 ± 3.7 | 1049.03 ± 3.7
w1 = 0.1379 | 1074.05 ± 3.7 | 1072.65 ± 3.7 | 1071.16 ± 3.7 | 1069.55 ± 3.7 | 1067.85 ± 3.7

CCn1cc[n+](C)c1.O=S(=O)([O-])O [1-ethyl-3-methylimidazolium hydrogen sulfate] + O
[1]
Conditions | osmotic coefficient
m1 = 1.038 | 0.895 ± 0.011
m1 = 1.543 | 0.897 ± 0.011
m1 = 1.745 | 0.898 ± 0.011
m1 = 1.961 | 0.9 ± 0.011
m1 = 2.045 | 0.904 ± 0.011
m1 = 2.251 | 0.909 ± 0.011
m1 = 2.534 | 0.915 ± 0.01
m1 = 2.814 | 0.919 ± 0.01
m1 = 3.343 | 0.93 ± 0.01
m1 = 4.042 | 0.948 ± 0.01
m1 = 4.513 | 0.96 ± 0.01
m1 = 5.04 | 0.974 ± 0.01
m1 = 5.663 | 0.993 ± 0.01
m1 = 6.555 | 1.03 ± 0.01
m1 = 6.91 | 1.05 ± 0.01

mass density [kg/m3], [3]
Conditions | m1 = 0.0363 | m1 = 0.0687 | m1 = 0.1026 | m1 = 0.1384 | m1 = 0.1716 | m1 = 0.2049 | m1 = 0.2391 | m1 = 0.2718 | m1 = 0.3034 | m1 = 0.3375
293.15 K | 1000.86 ± 3 | 1003.08 ± 3 | 1005.3 ± 3 | 1007.57 ± 3 | 1009.63 ± 3 | 1011.67 ± 3 | 1013.72 ± 3 | 1015.68 ± 3 | 1017.53 ± 3 | 1019.54 ± 3
298.15 K | 999.65 ± 3 | 1001.82 ± 3 | 1003.99 ± 3 | 1006.22 ± 3 | 1008.23 ± 3 | 1010.23 ± 3 | 1012.24 ± 3 | 1014.17 ± 3 | 1016 ± 3 | 1017.98 ± 3
303.15 K | 998.2 ± 3 | 1000.33 ± 3 | 1002.46 ± 3 | 1004.64 ± 3 | 1006.63 ± 3 | 1008.6 ± 3 | 1010.58 ± 3 | 1012.47 ± 3 | 1014.26 ± 3 | 1016.21 ± 3
308.15 K | 996.54 ± 3 | 998.63 ± 3 | 1000.73 ± 3 | 1002.87 ± 3 | 1004.82 ± 3 | 1006.76 ± 3 | 1008.7 ± 3 | 1010.58 ± 3 | 1012.34 ± 3 | 1014.25 ± 3
313.15 K | 994.68 ± 3 | 996.73 ± 3 | 998.8 ± 3 | 1000.91 ± 3 | 1002.83 ± 3 | 1004.74 ± 3 | 1006.66 ± 3 | 1008.5 ± 3 | 1010.24 ± 3 | 1012.13 ± 3
